The text below walks through data of patent US20090220562A1, “Osteogenic and anti-adipogenic oxysterols” (priority 2005, published 2009).

For assay [1], the system named is M2-10B4 marrow stromal cells. Description: Matrix mineralization (45Ca incorporation assay, von Kossa staining) in M2-10B4 marrow stromal cells. Format: cell-based, mouse. The conditions noted are these: for induction of mineralization by individual oxysterols: 0.5 to less than 10 μM, as many as 14 days (data not shown). As for the experimental part:
Cells: M2-10B4 mouse marrow stromal cell line obtained from American Type Culture Collection (ATCC, Rockville, Md., U.S.A.) was derived from bone marrow stromal cells of a (C57BL/6J x C3H/HeJ) Fl mouse, and support human and murine myelopoiesis in long-term cultures (as per ATCC) and have the ability to differentiate into osteoblastic and adipocytic cells. Unless specified, these cells were cultured in RPMI 1640 containing 10% heat-inactivated FBS, and supplemented with 1 mM sodium pyruvate, 100 U/ml penicillin, and 100 U/ml streptomycin (all from Irvine Scientific).
(§1) Von Kossa and oil red O staining—Matrix mineralization in cell monolayers was detected by silver nitrate staining as previously described. Oil red O staining for detection of adipocytes was performed as previously described.
^45Ca incorporation assay—Matrix mineralization in cell monolayers was quantified using the ^45Ca incorporation assay as previously described.
After 14 days, mineralization was identified by a von Kossa staining, which appears black. FIG. 3C is a depiction of von Kossa staining of M2 cells exposed to various conditions.
After 14 days, matrix mineralization in cultures was quantified using a ^45Ca incorporation assay.
Next, a combination of 22R and 20S oxysterols (RS, 2.5 μM each) were added in the presence or absence of SC as indicated. After 3 days, ALP activity was measured as described earlier. […] (B) M2 cells were treated as described in (A) and after 10 days matrix mineralization in cultures was quantified by a ^45Ca incorporation assay as described earlier. […] (C) M2 cells were pretreated with 20 μM SC for 4 hours, followed by the addition of RS in the presence or absence of SC as described above. After 8 days, total RNA was isolated and analyzed for osteocalcin (Osc) and […] expression by Northern blotting as previously described. Data from densitometric analysis of the Northern blot is shown in (D) as the average of duplicate samples, normalized to 18S rRNA. (E) M2 cells at confluence were pretreated for 2 hours with control vehicle (C), or PLA2 inhibitors ACA (25 μM) and AACOCF3 (AAC, 20 μM), in osteogenic medium. Next, a combination of 22R and 20S oxysterols (RS, 2.5 μM) was added in the presence or absence of the inhibitors as indicated. After 3 days, ALP activity was measured as previously described. […] (F) M2 cells were treated as described in (E). After 10 days, matrix mineralization in cultures was quantified using a ^45Ca incorporation assay as previously described. Results from a representative of three experiments are shown, reported as the mean of quadruplicate determinations ±SD, normalized to protein concentration (p<0.01 for RS vs. RS+ACA and RS+AAC).
(A) M2 cells at confluence were pretreated for four hours with RPMI containing 1% FBS, followed by treatment with control vehicle or 5 μM 20S oxysterol for 1, 4, or 8 hours. Next total cell extracts were prepared and analyzed for levels of native or phosphorylated ERK (pERK) using specific antibodies as previously described. Data from a representative of four experiments are shown, each treatment shown in duplicate samples. (B) M2 cells at confluence were pretreated for 2 hours with control vehicle (C) or 20 μM PD98059 (PD) in osteogenic medium as previously described. Next, a combination of 22R and 20S oxysterols (RS, 5 μM each) were added to appropriate wells as indicated. After 10 days of incubation, matrix mineralization was quantified by the ^45Ca incorporation assay as previously described. […] (C) M2 cells at confluence were pretreated for 2 hours with 20 µM PD98059 (PD) in RPMI containing 5% FBS. Next, the cells were treated with control vehicle (C), 10 μM troglitazone (Tro), or 10 μM of 20S or 22S oxysterols, alone or in combination as indicated. After 10 days, adipocytes were visualized by oil Red O staining and quantified by light microscopy as previously described. […]

Assay [2] relates to M2 cells. Description: Troglitazone-induced adipogenesis in M2 cells (oil Red O staining, adipocyte count). Type of assay: cell-based, mouse. To be noted: Tro 10 μM, oxysterol 10 μM, 10 days, alone or in combination. As for the experimental part:
as §1
Test 1: M2 cells at 90% confluence were treated with vehicle (C), PPAR-γ activator, troglitazone 10 μM (Tro), alone or in combination with 10 μM oxysterols 20S-, 22R-, or 25S-hydroxycholesterol. After 8 days, adipocytes were identified by oil Red 0 staining and quantified by counting under a phase contrast microscope. FIG. 6A is a bar graph depicting the effect of oxysterols on reducing adipogenesis of MSC.
Test 2: (A) M2 cells at confluence were treated in RPMI containing 10% FBS with control vehicle or 10 μM troglitazone (Tro) in the absence or presence of 10 μM 20S or 22S-hydroxycholesterol. After 10 days, adipocytes were visualized by oil Red O staining and quantified by light microscopy, shown in (B). […] (C) M2 cells were treated at confluence with 10 μM Tro, alone or in combination with 10 μM 20S oxysterol. After 10 days, total RNA was isolated and analyzed for lipoprotein lipase (LPL), adipocyte P2 gene (aP2) or 18S rRNA expression by Northern blotting as described (Ref). Data from densitometric analysis of the Northern blot is shown in (D) as the average of duplicate samples, normalized to 18S rRNA.

As to `CC(C)CCC[C@](C)(O)[C@H]1CC[C@H]2[C@@H]3CC=C4C[C@@H](O)CC[C@]4(C)[C@H]3CC[C@@]21C` [20S-hydroxycholesterol], in assay [1], the “induction of mineralization by individual oxysterols” value (from here on “induction of mineralization”) was “unable to induce”. Moreover, the mineralization entry in assay [1] (doses of 5-15 μM) was “induction”. Besides, the “effect on troglitazone-induced adipogenesis” value (from here on “effect”) in assay [2] is given as “inhibited adipogenesis”.

In the case of `CC(C)CC[C@H](O)[C@@H](C)[C@H]1CC[C@H]2[C@@H]3CC=C4C[C@@H](O)CC[C@]4(C)[C@H]3CC[C@]12C` [22S-hydroxycholesterol], the “induction of mineralization” value in assay [1] is “unable to induce”. Moreover, in assay [2], the “effect” value is on record as “inhibited adipogenesis”.

For `CC(C)CC[C@@H](O)[C@@H](C)[C@H]1CC[C@H]2[C@@H]3CC=C4C[C@@H](O)CC[C@]4(C)[C@H]3CC[C@]12C` [22R-hydroxycholesterol], in assay [1], the “induction of mineralization” value is “unable to induce”. Also, the “effect” value in assay [2] is “inhibited adipogenesis”.
